Laboratory results reported in ChEMBL document CHEMBL5038581, “Design, synthesis, and biological evaluation of novel dual inhibitors targeting lysine specific demethylase 1 (LSD1) and histone deacetylases (HDAC) for treatment of gastric cancer” (Eur J Med Chem, 2021).
pIC50: −log10 of the molar value. Active and inactive are the calls of the source. The calls are words filed in the database; no cut-off is given here.

Columns and labels:
AGS = assay: cells; conditions: Homo sapiens, 72 h
MGC-803 [1] = assay: Inhibition of cell migration in human MGC-803 cells assessed as upregulation of E-cadherin at 0.2 to 0.6 uM for 48 hrs by western blot analysis; type: functional, cell-based; conditions: dose 0.2-0.6 µM
MGC-803 [2] = assay: Inhibition of colony formation in human MGC-803 cells assessed as reduction in colony formation at 0.2 to 0.6 uM measured after 7 days by crystal violet staining based microscopic analysis; type: functional, cell-based; conditions: dose 0.2-0.6 µM, time 7.0 day
MGC-803 [3] = assay: Inhibition of cell migration in human MGC-803 cells assessed as upregulation of ZO-1 at 0.2 to 0.6 uM for 48 hrs by western blot analysis; type: functional, cell-based; conditions: dose 0.2-0.6 µM
[4] = Metabolic stability in rat liver microsomes assessed as half life in presence of NADPH at 1 uM by LC-MS/MS analysis; type: ADME, Microsome
MGC-803 [5] = assay: Inhibition of cell migration in human MGC-803 cells 0.2 to 0.6 uM up to 24 hrs by Hoechst 33258 staining based transwell migration assay; type: functional; conditions: dose 0.2-0.6 µM, time hrs <=24
MGC-803 [6] = assay: Induction of apoptosis in human MGC-803 cells assessed as apoptotic cells at 2.5 uM incubated for 48 hrs by annexin V-FITC and PI staining based flowcytometry analysis (Rvb =4.9 %); type: functional
CYP2C19 = CYP2C19 (Homo sapiens, UniProt P33261); assay: Inhibition of CYP2C19 (unknown origin) at 10 uM using S-mephenytoin as substrate relative to control; type: ADME; conditions: probe S-mephenytoin
[7] = Metabolic stability in rat liver microsomes assessed as intrinsic clearance in presence of NADPH at 1 uM by LC-MS/MS analysis; type: ADME, Microsome; conditions: read-out: CLH
[8] = Metabolic stability in human liver microsomes assessed as half life in presence of NADPH at 1 uM by LC-MS/MS analysis; type: ADME, Microsome
SNU1 = assay: cells; conditions: Homo sapiens, SNU1, 72 h
MKN-45 = assay: cells; conditions: Homo sapiens, MKN-45, 72 h
Histone deacetylase 2 = Histone deacetylase 2 (Homo sapiens, UniProt Q92769)
BGC-823 = assay: cells; conditions: Homo sapiens, BGC-823, 72 h
NCI-N87 = assay: cells; conditions: Homo sapiens, NCI-N87, 72 h
MKN-1 = assay: cells; conditions: Homo sapiens, MKN-1, 72 h
MGC-803 [9] = assay: Inhibition of cell migration in human MGC-803 cells assessed as downregulation of Vimentin at 0.2 to 0.6 uM for 48 hrs by western blot analysis; type: functional, cell-based; conditions: dose 0.2-0.6 µM
MGC-803 [10] = assay: Inhibition of cell migration in human MGC-803 cells assessed as downregulation of Vimentin at 2 to 8 uM for 48 hrs by western blot analysis; type: functional, cell-based; conditions: dose 2-8 µM
MGC-803 [11] = assay: Inhibition of cell migration in human MGC-803 cells assessed as upregulation of ZO-1 at 2 to 8 uM for 48 hrs by western blot analysis; type: functional, cell-based; conditions: dose 2-8 µM
MGC-803 [12] = assay: Inhibition of cell migration in human MGC-803 cells at 2 to 8 uM up to 24 hrs by wound healing assay; type: functional, cell-based; conditions: dose 2-8 µM, time hrs <=24
MGC-803 [13] = assay: Inhibition of colony formation in human MGC-803 cells assessed as reduction in colony formation at 4 to 8 uM measured after 7 days by crystal violet staining based microscopic analysis; type: functional, cell-based; conditions: dose 4-8 µM, time 7.0 day
MGC-803 [14] = assay: Inhibition of cell migration in human MGC-803 cells assessed as upregulation of E-cadherin at 2 to 8 uM for 48 hrs by western blot analysis; type: functional, cell-based; conditions: dose 2-8 µM
MGC-803 [15] = assay: Inhibition of cell migration in human MGC-803 cells 4 to 8 uM up to 24 hrs by Hoechst 33258 staining based transwell migration assay; type: functional; conditions: dose 4-8 µM, time hrs <=24

Sequence of CYP2C19 (P33261 whole entry): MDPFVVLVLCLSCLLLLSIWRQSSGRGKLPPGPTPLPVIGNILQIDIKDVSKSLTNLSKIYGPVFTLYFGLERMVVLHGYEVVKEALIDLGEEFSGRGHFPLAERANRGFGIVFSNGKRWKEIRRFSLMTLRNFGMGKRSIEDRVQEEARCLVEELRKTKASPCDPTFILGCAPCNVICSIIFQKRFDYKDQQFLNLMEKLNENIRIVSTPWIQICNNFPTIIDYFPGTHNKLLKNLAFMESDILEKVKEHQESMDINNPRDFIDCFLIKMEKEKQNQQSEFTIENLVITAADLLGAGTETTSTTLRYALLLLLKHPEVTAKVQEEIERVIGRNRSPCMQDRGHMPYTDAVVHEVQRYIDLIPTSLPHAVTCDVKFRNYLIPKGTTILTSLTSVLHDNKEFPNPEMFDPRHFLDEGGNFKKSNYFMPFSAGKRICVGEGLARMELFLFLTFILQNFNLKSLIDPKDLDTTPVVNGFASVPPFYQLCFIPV
Sequence of Histone deacetylase 2 (Q92769 whole entry): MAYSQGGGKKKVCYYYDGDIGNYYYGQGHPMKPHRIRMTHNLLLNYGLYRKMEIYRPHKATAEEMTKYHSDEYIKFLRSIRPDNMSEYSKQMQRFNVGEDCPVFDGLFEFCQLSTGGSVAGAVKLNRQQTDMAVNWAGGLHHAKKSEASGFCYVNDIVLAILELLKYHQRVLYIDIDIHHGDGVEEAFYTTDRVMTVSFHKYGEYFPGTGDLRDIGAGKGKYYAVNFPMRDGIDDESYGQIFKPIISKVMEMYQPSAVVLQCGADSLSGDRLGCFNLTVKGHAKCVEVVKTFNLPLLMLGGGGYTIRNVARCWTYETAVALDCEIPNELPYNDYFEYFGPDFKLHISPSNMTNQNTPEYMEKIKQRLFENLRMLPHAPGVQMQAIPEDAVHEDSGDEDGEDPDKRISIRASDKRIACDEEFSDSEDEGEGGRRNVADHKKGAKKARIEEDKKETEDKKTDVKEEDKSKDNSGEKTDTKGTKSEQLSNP

With Cc1ccc(-c2cc(/C=C/c3ccc(C(=O)NO)cc3)ccn2)c(F)c1 the pIC50 (AGS) was 5.81, the Activity (MGC-803 [1]) was “Active” and the inhibition (MGC-803 [2]) was “Dose-Dependent Effect”. The Activity (MGC-803 [3]) was “Active”, the half-life at 1 µM [4] was 17.2 min and the inhibition (MGC-803 [5]) was “Dose-Dependent Effect”. For the same compound, the Activity (MGC-803 [6]) was 77.9%, the inhibition at 10 µM (CYP2C19) was 22.8% and the microsomal CLint at 1 µM [7] was 202 µL/min/mg. The half-life at 1 µM [8] was 51.3 min, the pIC50 (SNU1) was 6.00 and the pIC50 (MKN-45) was 5.94. The pIC50 (Histone deacetylase 2) was 6.39, the pIC50 (BGC-823) was 5.82 and the pIC50 (NCI-N87) was 6.64. For the same compound, the pIC50 (MKN-1) was 6.40 and the Activity (MGC-803 [9]) was “Active”.

For O=C(NO)c1ccc(/C=C/c2ccnc(-c3ccccc3O)c2)cc1, the Activity (MGC-803 [10]) was “Active”, the half-life at 1 µM [4] was 6.9 min and the Activity (MGC-803 [11]) was “Active”. The Activity (MGC-803 [6]) was 33.2%, the inhibition at 10 µM (CYP2C19) was 18.7% and the microsomal CLint at 1 µM [7] was 505 µL/min/mg. The inhibition (MGC-803 [12]) was “Dose-Dependent Effect”, the half-life at 1 µM [8] was 33 min and the Activity (MGC-803 [13]) was “Dose-Dependent Effect”. The Activity (MGC-803 [14]) was “Active” and the inhibition (MGC-803 [15]) was “Dose-Dependent Effect”.
